Laboratory results published in patent US20100075965A1, “PI3 KINASE INHIBITORS AND METHODS OF THEIR USE” (Novartis AG, priority 2006, published 2010).

Tests used:
[1] = molecular target: PI3 K Alpha (Homo sapiens, UniProt P42336); assay: PI3 kinase phosphorylation assays (homogenous solution phase, one step solid phase, ATP depletion/KinaseGlo); assay type: biochemical; conditions: read-out: PI3K Alpha IC50
Experimental: Compounds to be tested are dissolved in DMSO and directly distributed into 384-well flashplates at 1.25 μL per well. To start the reaction, 20 μL of 6 nM PI3 kinase are added into each well followed by 20 μL of 400 nM ATP containing a trace of radiolabeled ATP and 900 nM 1-alpha-phosphatidylinositol (PI). The plates are briefly centrifuged to remove any air gap. The reaction is performed for 15 minutes and then stopped by the addition of 20 μL of 100 mM EDTA. The stopped reaction is incubated overnight at RT to allow the lipid substrate to bind by hydrophobic interaction to the surface of the flashplate. The liquid in the wells is then washed away, and the labeled substrate is detected with scintillation counting.
This method is similar to Assay 1 except that the lipid substrate (1-alpha-phosphatidylinositol (PI)) is first dissolved in a coating buffer and incubated on flashplate at room temperature overnight to allow the lipid substrate to bind by hydrophobic interaction to the surface of the flashplate. Unbound substrate is then washed away. On the day of assay, 20 μL of 6 nM PI3 kinase are added into each well followed by 20 μL of 400 nM ATP containing trace of radiolabeled ATP. Compounds are added together with enzyme and ATP to the lipid-coated plates. The plates are briefly centrifuged to remove any air gap. The reaction is performed for two to three hours. The reaction is stopped by addition of 20 μL of 100 mM EDTA or by immediate plate washing. Phosphorylated lipid substrate is detected by scintillation counting.
Compounds to be tested are dissolved in DMSO and directly distributed into a black 384-well plate at 1.25 μL per well. To start the reaction, 25 μL of 10 nM PI3 kinase and 5 μg/mL 1-alpha-phosphatidylinositol (PI) are added into each well followed by 25 μL of 2 μM ATP. The reaction is performed until approx 50% of the ATP is depleted, and then stopped by the addition of 25 μL of KinaseGlo solution. The stopped reaction is incubated for 5 minutes and the remaining ATP is then detected via luminescence.

[2] = system: A2780 cells; assay: Viability assay in A2780 (Cell Titer Glo); assay type: cell-based, human; conditions: Homo sapiens; A2780 cells; read-out: A2780 Cell prolif. EC50
Experimental: Cell viability was assessed with Cell Titer Glo assay, Promega. Cells were seeded in TC treated 96-well plates at a density of 1,000 (A2780 cells) per well in DMEM with 10% FBS, 1% Sodium Pyruvate, and 1% Penicillin Streptomycin for a minimum of 2 hrs prior to addition of compound. Test compounds were serially diluted (3 fold) in DMSO to 500× the final concentration. For each concentration of test compound, 2 μL (500×) aliquots of compound or 100% DMSO (control) were diluted in 500 μL of culture medium to 2× final concentration then diluted 1× on the cells. Cells were incubated for 72 hrs at 37° C., 5% CO2. After which Cell Titer Glo is added to determine viable cells, the assay was performed according to the manufacturer's instruction (Promega Corporation, Madison, Wis. USA). Each experimental condition was performed in duplicate. Raw data was imported in Abase and EC50s calculated with XL-fit data analysis software and are shown in Tables 1 and 2 in the column labeled “A2780 Cell prolif. EC50”.

Sequence of PI3 K Alpha (P42336 whole entry): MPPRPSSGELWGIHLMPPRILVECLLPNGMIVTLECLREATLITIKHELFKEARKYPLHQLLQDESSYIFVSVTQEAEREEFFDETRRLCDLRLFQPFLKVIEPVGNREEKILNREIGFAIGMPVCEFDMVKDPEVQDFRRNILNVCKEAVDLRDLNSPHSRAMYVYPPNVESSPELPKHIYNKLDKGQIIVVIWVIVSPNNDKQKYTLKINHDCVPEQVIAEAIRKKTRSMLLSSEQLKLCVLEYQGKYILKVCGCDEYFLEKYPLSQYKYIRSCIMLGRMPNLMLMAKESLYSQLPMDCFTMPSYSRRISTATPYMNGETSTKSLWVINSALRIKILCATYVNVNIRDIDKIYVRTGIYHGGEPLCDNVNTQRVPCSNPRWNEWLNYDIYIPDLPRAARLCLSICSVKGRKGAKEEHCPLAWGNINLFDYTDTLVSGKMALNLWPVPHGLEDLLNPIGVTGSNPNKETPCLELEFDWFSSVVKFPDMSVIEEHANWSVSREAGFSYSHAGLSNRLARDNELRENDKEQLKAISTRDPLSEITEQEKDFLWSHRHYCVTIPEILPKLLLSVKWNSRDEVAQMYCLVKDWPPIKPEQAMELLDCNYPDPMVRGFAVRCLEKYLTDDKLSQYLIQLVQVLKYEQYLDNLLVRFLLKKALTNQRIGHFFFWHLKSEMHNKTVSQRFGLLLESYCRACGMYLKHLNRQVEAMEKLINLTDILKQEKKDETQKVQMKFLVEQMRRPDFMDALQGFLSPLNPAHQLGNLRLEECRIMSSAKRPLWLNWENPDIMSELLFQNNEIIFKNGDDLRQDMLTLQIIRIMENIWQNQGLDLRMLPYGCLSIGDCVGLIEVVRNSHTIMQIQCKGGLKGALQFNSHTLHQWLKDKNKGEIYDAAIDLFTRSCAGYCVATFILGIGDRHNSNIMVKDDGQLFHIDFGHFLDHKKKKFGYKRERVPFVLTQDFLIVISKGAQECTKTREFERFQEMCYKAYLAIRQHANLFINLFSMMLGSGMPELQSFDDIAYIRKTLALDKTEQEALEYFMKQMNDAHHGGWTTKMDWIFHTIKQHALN
Sequence of PI3 K Alpha (P27986 whole entry partner): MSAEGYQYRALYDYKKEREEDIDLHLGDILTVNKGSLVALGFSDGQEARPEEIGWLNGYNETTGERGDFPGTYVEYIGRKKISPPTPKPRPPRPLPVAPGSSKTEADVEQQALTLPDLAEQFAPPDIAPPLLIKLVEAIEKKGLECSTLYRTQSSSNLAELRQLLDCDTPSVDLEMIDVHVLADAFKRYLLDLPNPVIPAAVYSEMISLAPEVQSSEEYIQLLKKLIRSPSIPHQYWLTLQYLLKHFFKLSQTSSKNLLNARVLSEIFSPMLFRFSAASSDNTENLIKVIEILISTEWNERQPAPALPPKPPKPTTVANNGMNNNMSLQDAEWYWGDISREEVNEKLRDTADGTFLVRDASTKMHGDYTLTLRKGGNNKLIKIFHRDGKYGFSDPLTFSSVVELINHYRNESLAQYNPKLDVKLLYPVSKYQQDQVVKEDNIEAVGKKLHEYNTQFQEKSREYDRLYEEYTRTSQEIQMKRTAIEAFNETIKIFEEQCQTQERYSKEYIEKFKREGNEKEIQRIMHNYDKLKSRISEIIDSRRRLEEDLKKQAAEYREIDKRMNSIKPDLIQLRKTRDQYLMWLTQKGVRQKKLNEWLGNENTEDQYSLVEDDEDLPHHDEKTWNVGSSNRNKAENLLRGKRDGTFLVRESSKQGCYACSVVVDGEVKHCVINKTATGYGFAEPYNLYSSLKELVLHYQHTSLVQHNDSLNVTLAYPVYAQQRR

| Structure (SMILES) | IC50 [1] [nM] | EC50 [2] [µM] |
| --- | --- | --- |
| Nc1ncc(-c2ccc3nc(NC(=O)N4CC[C@H]4C(=O)O)cn3c2)cc1C(F)(F)F [Example 45, (S)-1-(6-(6-amino-5-(trifluoromethyl)pyridin-3-yl)imidazo[1,2-a]pyridin-2-ylcarbamoyl) azetidine-2-carboxylic acid] | < 10000 | < 25 |
| NC(=O)N1CCC[C@H]1C(=O)Nc1cn2cc(-c3cnc(N)c(C(F)(F)F)c3)ccc2n1 [Example 46, (S)-N2-(6-(6-amino-5-(trifluoromethyl)pyridin-3-yl)imidazo[1,2-a]pyridin-2-yl)pyrrolidine-1,2-dicarboxamide] | < 10000 | < 10 |
| Nc1ncc(-c2ccc3nc(NC(=O)Cc4ccccn4)cn3c2)cc1C(F)(F)F [Example 52, N-(6-(6-amino-5-(trifluoromethyl)pyridin-3-yl)imidazo[1,2-a]pyridin-2-yl)-2-(pyridin-2-yl)acetamide] | < 1000 | < 10 |
| Nc1ncc(-c2ccc3nc(NC(=O)CN4CCCCC4)cn3c2)nc1OCC(F)(F)F [Example 109, N-(6-(5-amino-6-(2,2,2-trifluoroethoxy)pyrazin-2-yl)imidazo[1,2-a]pyridin-2-yl)-2-(piperidin-1-yl)acetamide] | < 1000 | < 1 |
| CC(=O)Nc1cn2c(C)c(-c3cnc(N)c(OCC(F)(F)F)n3)ccc2n1 [Example 112, N-(6-(5-amino-6-(2,2,2-trifluoroethoxy)pyrazin-2-yl)-5-methylimidazo [1,2-a]pyridin-2-yl)acetamide] | < 1000 | < 10 |
| Nc1ncc(-c2ccc3nc(NC(=O)[C@@H]4CCCN4)cn3n2)cc1C(F)(F)F [Example 129, (S)-N-(6-(6-amino-5-(trifluoromethyl)pyridin-3-yl)imidazo[1,2-b]pyridazin-2-yl)pyrrolidine-2-carboxamide] | < 1000 | < 10 |
| CC(=O)Nc1cn2cc(-c3cnc(N)c(-c4cccc(F)c4)c3)ccc2n1 [Example 134, N-(6-(6-amino-5-(3-fluorophenyl)pyridin-3-yl)imidazo[1,2-a]pyridin-2-yl)acetamide] | < 1000 | < 10 |
| NCCCC(=O)Nc1cn2nc(-c3cnc(N)c(C(F)(F)F)c3)ccc2n1 [Example 137, 4-amino-N-(6-(6-amino-5-(trifluoromethyl)pyridin-3-yl)imidazo[1,2-b]pyridazin-2-yl)butanamide] | < 1000 | < 25 |
| Nc1ncc(-c2ccc3nc(NC(=O)CCCC(=O)O)cn3n2)cc1C(F)(F)F [Example 138, 5-(6-(6-amino-5-(trifluoromethyl)pyridin-3-yl)imidazo[1,2-b]pyridazin-2-ylamino)-5-oxopentanoic acid] | < 1000 | < 25 |
| CC(=O)Nc1cn2nc(-c3cnc(N)c(C(=O)NCCN)c3)ccc2n1 [Example 139, 5-(2-acetamido-imidazo[1,2-b]pyridazin-6-yl)-2-amino-N-(2-aminoethyl) nicotinamide] | < 1000 | < 25 |
| CC(=O)Nc1cn2nc(-c3cnc(N)c(C(=O)NCCO)c3)ccc2n1 [Example 140, 5-(2-acetamido-imidazo[1,2-b]pyridazin-6-yl)-2-amino-N-(2-hydroxyethyl) nicotinamide] | < 1000 | < 25 |
| CC(=O)Nc1cn2nc(-c3cnc(N)c(C(=O)NCCNS(C)(=O)=O)c3)ccc2n1 [Example 141, 5-(2-acetamido-imidazo[1,2-b]pyridazin-6-yl)-2-amino-N-(2-(methylsulfon amido)ethyl) nicotinamide] | < 1000 | < 25 |
| Nc1ncc(-c2ccc3nc(NC(=O)C4CNC4)cn3n2)cc1Cl [Example 142, N-(6-(6-amino-5-chloropyridin-3-yl)imidazo[1,2-b]pyridazin-2-yl)azetidine-3-carboxamide] | < 1000 | < 25 |
| Nc1ncc(-c2ccc3nc(NC(=O)c4ccc(F)nc4)cn3c2)cc1C(F)(F)F [Example 143, N-(6-(6-amino-5-(trifluoromethyl)pyridin-3-yl)imidazo[1,2-a]pyridin-2-yl)-6-fluoronicotinamide] | < 1000 | < 25 |
